Biological target: T1, purified bovine MTP (Bos taurus, UniProt P55156)
T1 sequence (P55156 12-887): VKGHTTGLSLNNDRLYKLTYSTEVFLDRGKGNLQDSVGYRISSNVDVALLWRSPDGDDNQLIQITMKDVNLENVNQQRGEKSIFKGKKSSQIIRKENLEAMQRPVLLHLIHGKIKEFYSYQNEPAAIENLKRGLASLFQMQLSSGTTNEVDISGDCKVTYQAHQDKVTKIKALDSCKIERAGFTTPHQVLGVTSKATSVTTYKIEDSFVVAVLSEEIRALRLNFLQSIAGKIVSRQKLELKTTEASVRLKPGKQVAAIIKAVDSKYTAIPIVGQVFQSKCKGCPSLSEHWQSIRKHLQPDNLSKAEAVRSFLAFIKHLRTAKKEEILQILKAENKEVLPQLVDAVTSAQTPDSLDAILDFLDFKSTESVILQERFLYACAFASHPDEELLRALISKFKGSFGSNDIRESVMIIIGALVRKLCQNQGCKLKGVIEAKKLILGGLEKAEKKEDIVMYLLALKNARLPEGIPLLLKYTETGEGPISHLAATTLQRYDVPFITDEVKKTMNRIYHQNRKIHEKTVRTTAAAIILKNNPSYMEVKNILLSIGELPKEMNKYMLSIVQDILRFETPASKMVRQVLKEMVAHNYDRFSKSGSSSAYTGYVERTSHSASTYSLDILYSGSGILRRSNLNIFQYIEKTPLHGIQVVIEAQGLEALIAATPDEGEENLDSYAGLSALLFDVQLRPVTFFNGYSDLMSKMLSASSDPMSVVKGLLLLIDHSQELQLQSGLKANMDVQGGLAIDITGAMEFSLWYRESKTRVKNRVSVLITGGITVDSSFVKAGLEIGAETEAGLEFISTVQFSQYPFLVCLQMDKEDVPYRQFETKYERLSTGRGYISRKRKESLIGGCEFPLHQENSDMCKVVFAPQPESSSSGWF
T1 sequence (P05307 21-510 partner): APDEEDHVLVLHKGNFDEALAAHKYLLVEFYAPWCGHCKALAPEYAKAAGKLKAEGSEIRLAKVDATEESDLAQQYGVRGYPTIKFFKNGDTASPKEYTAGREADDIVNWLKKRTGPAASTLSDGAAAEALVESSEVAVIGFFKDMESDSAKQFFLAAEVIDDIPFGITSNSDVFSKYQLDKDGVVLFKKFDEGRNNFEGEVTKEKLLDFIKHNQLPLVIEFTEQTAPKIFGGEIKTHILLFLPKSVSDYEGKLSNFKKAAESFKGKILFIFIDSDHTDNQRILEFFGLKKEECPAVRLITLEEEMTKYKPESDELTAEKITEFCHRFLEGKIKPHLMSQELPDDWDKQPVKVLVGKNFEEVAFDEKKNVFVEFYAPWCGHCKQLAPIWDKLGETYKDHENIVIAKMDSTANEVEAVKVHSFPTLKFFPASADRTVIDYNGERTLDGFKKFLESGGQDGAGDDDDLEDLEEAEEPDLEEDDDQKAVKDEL
Experiment: MTP-mediated transfer of lipid classes biosynthetically labeled with OA or EPA (donor/acceptor vesicles)
Format: biochemical
Procedure: FIG. 5 illustrates that Ω-3 lipids are good substrates for MTP-mediated lipid transfer. HepG2 cells were incubated for 14 hr at 37° C. with ^14C-labeled oleate (OA) or ^14C-labeled EPA complexed to BSA (final concentration of either fatty acid was 0.8 mM). Total lipids were extracted from the washed cell monolayers and separated by preparative TLC into triglyceride (TG), cholesteryl ester (CE), phosphatidylcholine (PC), and phosphatidylethanolamine (PE). The isolated lipid classes were then incorporated (to a content of 0.5 mol %) into vesicles that were used as donors in lipid transfer assays with recombinant MTP. Results were normalized to the transfer of [^14C]triolein and are shown as mean values ±SE (n=4).
Three methods were used to assess possible effects of Ω-3 fatty acids on cellular MTP function. First, rat primary hepatocytes were incubated with BSA, OA, or EPA, and then MTP activity in cell lysates was measured using a fluorescent assay (Roar Biomedical, New York, NY). Second, to determine if lipid classes synthesized in the presence of OA or Ω-3 fatty acid are equivalent substrates for MTP, primary rat hepatocytes or HepG2 cells were incubated with tritiated OA or EPA, total cellular lipids were extracted into isopropanol, and biosynthetically labeled cholesteryl ester, triglyceride, and phospholipids were separated by preparative thin layer chromatography. Each of these isolated lipids was incorporated into vesicles that were used as donors in a transfer reaction with acceptor vesicles and […] of purified bovine MTP, as described in Jamil, H., Dickson, J. K., Jr., Chu, C. H., Lago, M. W., Rinehart, J. K., Biller, S. A., Gregg, R. E., and Wetterau, J. R. (1995) J Biol Chem 270(12), 6549-54. As an internal control for lipid transfer, each donor vesicle also contained [^14C]triolein. Third, to determine if Ω-3 lipids inhibit MTP-mediated transfer of non-Ω-3 lipids, artificial donor vesicles were prepared containing either labeled triolein or labeled POPC. The majority of lipid mass in these vesicles was unlabeled phosphatidylcholine that contained either 100% oleate esterified at the sn-2 position (control) or a mixture of 70% oleate and 30% DHA or 30% EPA. Transfer of the labeled lipids to acceptor vesicles in the presence of 50 μg of purified bovine MTP was measured as described in Jamil, H. et al (1995) J Biol Chem 270(12), 6549-54.
An intracellular abundance of relatively poor lipid substrates, produced during incubations of hepatocytes with EPA or DHA, could be functionally equivalent to MTP inhibition. Thus, rat primary hepatocytes and HepG2 cells were incubated with radiolabeled OA or EPA to allow incorporation of these fatty acids into lipid esters. […]

Structure (SMILES): CCCCCCCC/C=C\CCCCCCCC(=O)O [OA, oleic acid]
- MTP-mediated transfer of labeled cholesteryl esters, % of [14C]triolein transfer (lipids from fatty acid-treated HepG2 cells, P=0.07): 20%+4%
- MTP-mediated transfer of labeled phosphatidylethanolamines, % of [14C]triolein transfer (lipids from fatty acid-treated HepG2 cells, P=0.6): 1.1%+0.1%
- MTP-mediated transfer of labeled phosphatidylcholines, % of [14C]triolein transfer (lipids from fatty acid-treated HepG2 cells, P=0.7): 2.3%+1%
- MTP-mediated transfer rate of labeled triglycerides, % of [14C]triolein transfer (lipids harvested from fatty acid-treated HepG2 cells, P=0.3): 60%±8%

Source: US20030170643A1, “Regulation of apoB treatment and drug screening for cardiovascular and metabolic disorders or syndromes” (priority 1999, published 2003)
